Data reported in ChEMBL document CHEMBL1133887, “Anti-influenza virus activities of 2-alkoxyimino-n-(2-isoxazolin-3-ylmethyl)acetamides” (Bioorg Med Chem Lett, 2001).
≈ marks a conversion by molar mass, not a printed value.

Experiments:
[1] = Antiviral activity against A/WSN/33 strain of influenza virus (H1N1 subtype) in MDBK cells using cell protection assay; expressed as 10-100 ppm; assay type: functional, cell-based; settings: Bos taurus
[2] = Evaluated for cytotoxic activity in MDBK cells; assay type: functional; settings: Bos taurus
cells = assay type: functional, cell-based; settings: Bos taurus, MDBK
[3] = Antiviral activity against A/WSN/33 strain of influenza virus (H1N1 subtype) in MDBK cells using cell protection assay; expressed as 1-10 ppm; assay type: functional, cell-based; settings: Bos taurus
[4] = Antiviral activity against A/WSN/33 strain of influenza virus (H1N1 subtype) in MDBK cells using cell protection assay; expressed as >10-100 ppm; assay type: functional, cell-based; settings: Bos taurus
[5] = Antiviral activity against A/WSN/33 strain of influenza virus (H1N1 subtype) in MDBK cells using cell protection assay; expressed as 100 ppm; assay type: functional, cell-based; settings: Bos taurus
[6] = Antiviral activity against A/WSN/33 strain of influenza virus (H1N1 subtype) in MDBK cells using cell protection assay; assay type: functional, cell-based; settings: Bos taurus
[7] = The compound was evaluated for cytotoxic activity in MDBK cells; expressed as >100 ppm; assay type: functional; settings: Bos taurus

C=CCO/N=C(\C#N)C(=O)NCc1cc(C(C)(C)C)on1
EC50 [1]: 100 µg/mL (≈ 344 µM)
CC50 [2]: 100 µg/mL (≈ 344 µM)

CO/N=C(\C#N)C(=O)NCC1=NOC(C)(C)C1
EC50 [1]: 100 µg/mL (≈ 420 µM)
CC50 [2]: > 100 µg/mL

CCNC(=O)NC(=O)/C(C#N)=N/OC [CYMOXANIL]
EC50 (cells): > 100 µg/mL
CC50 [2]: > 100 µg/mL

CCO/N=C(\C#N)C(=O)NCC1=NOC(C(C)(C)C)C1 (stereo not given)
EC50 [3]: 10 µg/mL (≈ 35.7 µM)
CC50 [2]: > 100 µg/mL

C=CCO/N=C(\C#N)C(=O)NCC1=NOC(c2ccccc2)(c2ccccc2)C1
EC50 [4]: > 100 µg/mL
CC50 [2]: 100 µg/mL (≈ 257 µM)

CO/N=C(\C#N)C(=O)NC(=O)OC(C)(C)C
EC50 (cells): > 100 µg/mL
CC50 [2]: > 100 µg/mL

CC(C)(C)C1CC(CNC(=O)/C(C#N)=N/OCc2ccccc2)=NO1 (stereo not given)
EC50 [1]: 100 µg/mL (≈ 292 µM)
CC50 [2]: 100 µg/mL (≈ 292 µM)

CO/N=C(\C#N)C(=O)NCc1cccs1
EC50 (cells): > 100 µg/mL
CC50 [2]: > 100 µg/mL

C=CCO/N=C/C(=O)NCC1=NOC(C(C)(C)C)C1 (stereo not given)
EC50 [5]: 100 µg/mL (≈ 374 µM)
CC50 [2]: > 100 µg/mL

C=CCO/N=C(\C#N)C(=O)NCC1=NOC(c2ccccc2)C1 (stereo not given)
EC50 [1]: 100 µg/mL (≈ 320 µM)
CC50 [2]: 100 µg/mL (≈ 320 µM)

C=CCO/N=C(\C#N)C(=O)NCC1=NOC(C(C)(C)C)C1 (stereo not given)
CC50 [2]: > 100 µg/mL
EC50 [6]: 3 µg/mL (≈ 10.3 µM)

CO/N=C(\C#N)C(=O)NCC1=NOC(C)C1 (stereo not given)
EC50 [1]: 100 µg/mL (≈ 446 µM)
CC50 [7]: > 100 µg/mL

NC12CC3CC(CC(C3)C1)C2 [AMANTADINE]
EC50 [1]: 100 µg/mL (≈ 661 µM)
CC50 [2]: > 100 µg/mL

CC(C)O/N=C(\C#N)C(=O)NCC1=NOC(C(C)(C)C)C1 (stereo not given)
EC50 [3]: 10 µg/mL (≈ 34 µM)
CC50 [2]: > 100 µg/mL

C=CCO/N=C(\C)C(=O)NCC1=NOC(C(C)(C)C)C1 (stereo not given)
CC50 [2]: > 100 µg/mL
EC50 [6]: 6 µg/mL (≈ 21.3 µM)

CO/N=C(\C#N)C(=O)NCC1=NOC(C(C)(C)C)C1 (stereo not given)
EC50 [3]: 10 µg/mL (≈ 37.6 µM)
CC50 [2]: > 100 µg/mL

CO/N=C(/C#N)C(=O)NCC1=NOC(C)(C)C1
EC50 (cells): > 100 µg/mL
CC50 [2]: > 100 µg/mL

CO/N=C(/C#N)C(=O)NCC1=NOC(C(C)(C)C)C1 (stereo not given)
EC50 [1]: 100 µg/mL (≈ 376 µM)
CC50 [2]: > 100 µg/mL

CC(C)(C)C1CC(CNC(=O)/C(C#N)=N/OCc2cccnc2)=NO1 (stereo not given)
EC50 (cells): > 100 µg/mL
CC50 [2]: > 100 µg/mL

CC(C)(C)C1CC(CNC(=O)/C(C#N)=N/OCC#N)=NO1 (stereo not given)
EC50 [1]: 100 µg/mL (≈ 343 µM)
CC50 [2]: > 100 µg/mL

C=CCO/N=C(\CC)C(=O)NCC1=NOC(C(C)(C)C)C1 (stereo not given)
EC50 [5]: 100 µg/mL (≈ 339 µM)
CC50 [2]: > 100 µg/mL

C=CCO/N=C(/C(=O)NCC1=NOC(C(C)(C)C)C1)c1ccccc1 (stereo not given)
EC50 [5]: 100 µg/mL (≈ 291 µM)
CC50 [2]: > 100 µg/mL

CO/N=C(\C#N)C(=O)NCc1cccnc1
EC50 (cells): > 100 µg/mL
CC50 [2]: > 100 µg/mL

CO/N=C(\C#N)C(=O)NC1=NOC(C(C)(C)C)C1 (stereo not given)
EC50 (cells): > 100 µg/mL
CC50 [2]: > 100 µg/mL

CO/N=C(\C#N)C(=O)NCC1CC(C(C)(C)C)=NO1 (stereo not given)
EC50 [1]: 100 µg/mL (≈ 376 µM)
CC50 [2]: > 100 µg/mL
